Experimental data from patent US11618747B2, “LXR modulators with bicyclic core moiety” (OrsoBio, Inc., priority 2018, dated 2023).
pEC50: −log10 of the molar value.

Columns and labels:
[1] = target: T1, ligand-binding domain (LBD) of LXRα (Homo sapiens, UniProt Q13133); test: LXR Gal4 reporter transient transfection assay (LBD-M2H Gal4α); type: cell-based; conditions: HEK293 cells, LXRα LBD; read-out: LBD-M2H Gal4α (EC50 range)
T1 construct: expressed in transfected cells; host or cells: HEK293
T1 sequence (Q13133 155-447): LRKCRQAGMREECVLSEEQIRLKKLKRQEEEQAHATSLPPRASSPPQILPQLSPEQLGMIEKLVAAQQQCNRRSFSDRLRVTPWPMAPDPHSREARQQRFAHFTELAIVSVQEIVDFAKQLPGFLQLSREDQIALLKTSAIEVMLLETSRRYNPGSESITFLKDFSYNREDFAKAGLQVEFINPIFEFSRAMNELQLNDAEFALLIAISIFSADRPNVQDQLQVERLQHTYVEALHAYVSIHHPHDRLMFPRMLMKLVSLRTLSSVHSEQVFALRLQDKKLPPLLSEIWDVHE
Protocol: (§1) The tested compounds were usually dissolved, tested and stored as 20 mM stock solutions in DMSO. Since sulfonyl acetic acid derivatives tend to decarboxylate under these conditions, these stock solutions were prepared, tested and stored as 20 mM DMSO stock solutions containing 100 mM trifluoroacetic Acid (5 equivalents). Sulfonyl acetic acid derivatives are shelf stable as solid at rt for long time as reported by Griesbrecht et al. (Synlett 2010:374) or Faucher et al. (J. Med. Chem. 2004; 47:18).
(§2) LXR Gal4 Reporter Transient Transfection Assays
(§3) LXRα and LXRβ activity status was determined via detection of interaction with coactivator and corepressor proteins in mammalian two-hybrid experiments (M2H). For this, via transient transfection the full length (FL) proteins of LXRα (amino acids 1-447; NP005684; SEQ ID NO:1) or LXRβ-(amino acids 1-461; NP009052; SEQ ID NO:2) or the ligand-binding domains (LBD) of LXRα (amino acids 155-447 SEQ ID NO:3) or LXRβ (amino acids 156-461; SEQ ID NO:4) were expressed from pCMV-AD (Stratagene) as fusions to the transcriptional activation domain of NFkB. As cofactors, domains of either the steroid receptor coactivator 1 (SRC1; amino acids 552-887; SEQ ID NO:5) or of the corepressor NCoR (amino acids 1906-2312; NP006302; SEQ ID NO:6) were expressed as fusions to the DNA binding domain of the yeast transcription factor GAL4 (from pCMV-BD; Stratagene). Interaction was monitored via activation of a coexpressed Firefly Luciferase Reporter gene under control of a promoter containing repetitive GAL4 response elements (vector pFRLuc; Stratagene). Transfection efficiency was controlled via cotransfection of constitutively active pRL-CMV Renila reniformis luciferase reporter (Promega). HEK293 cells were grown in minimum essential medium (MEM) with 2 mM L-glutamine and Earle's balanced salt solution supplemented with 8.3% fetal bovine serum, 0.1 mM non-essential amino acids, 1 mM sodium pyruvate, at 37° C. in 5% CO2. 3.5×10^4 cells/well were plated in 96-well cell culture plates in growth medium supplemented with 8.3% fetal bovine serum for 16-20 h to ˜90% confluency. For transfection, medium was taken off and LXR and cofactor expressing plasmids as well as the reporter plasmids are added in 30 μL OPTIMEM/well including polyethylene-imine (PEI) as vehicle. Typical amounts of plasmids transfected/well: pCMV-AD-LXR (5 ng), pCMV-BD-cofactor (5 ng), pFR-Luc (100 ng), pRL-CMV (0.5 ng). Compound stocks were prepared in DMSO, prediluted in MEM to a total volume of 120 μL, and added 4 h after addition of the transfection mixture (final vehicle concentration not exceeding 0.2%). Cells were incubated for additional 16 h, lysed for 10 min in 1× Passive Lysis Buffer (Promega) and Firefly and Renilla luciferase activities were measured sequentially in the same cell extract using buffers containing D-luciferine and coelenterazine, respectively. Measurements of luminescence were done in a BMG-luminometer.

[2] = target: T2, LXRβ ligand-binding domain (Homo sapiens, UniProt P55055, DUP175-175); test: TR-FRETβ activity assay (NCoA3 coactivator peptide recruitment); type: biochemical; conditions: TR-FRET, 1 μM 24(S)-25-epoxycholesterol prestimulation; read-out: FRETβ (EC50 range)
T2 construct: amino acids 156-461; NP009052; made in house; host or cells: E. coli
T2 sequence (P55055 with tags, fused parts or gaps DUP175-175 limits assumed): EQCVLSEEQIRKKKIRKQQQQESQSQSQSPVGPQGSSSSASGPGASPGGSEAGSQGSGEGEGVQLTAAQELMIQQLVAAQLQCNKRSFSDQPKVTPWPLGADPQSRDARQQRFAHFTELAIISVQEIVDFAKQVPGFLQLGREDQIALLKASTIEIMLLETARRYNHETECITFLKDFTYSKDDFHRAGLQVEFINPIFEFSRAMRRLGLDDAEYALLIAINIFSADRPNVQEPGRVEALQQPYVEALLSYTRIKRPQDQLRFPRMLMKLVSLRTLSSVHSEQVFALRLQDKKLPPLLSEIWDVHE
Procedure, shortened: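 Inverse agonism assessed by loss of coactivator recruitment, read as TR-FRET 665/615 nm after 1 h equilibration at 4 °C, in triplicate. Ten-point titration from 50 μM to 0.002 μM against LXRβ LBD (76 nM, GST fusion) prestimulated with 1 μM 24(S)-25-epoxycholesterol, with 400 nM NCoA3 peptide, pH 6.8. Sulfonyl acetic acids kept as 20 mM DMSO stocks with 100 mM TFA.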

[3] = target: T3, ligand-binding domain (LBD) of LXRβ (Homo sapiens, UniProt P55055, DUP175-175); test: LXR Gal4 reporter transient transfection assay (LBD-M2H Gal4β); type: cell-based; conditions: HEK293 cells, LXRβ LBD; read-out: LBD-M2H Gal4β (EC50 range)
T3 construct: LXRβ (amino acids 156-461); expressed in transfected cells; host or cells: HEK293
T3 sequence (P55055 with tags, fused parts or gaps DUP175-175 limits assumed): T2 sequence (P55055 with tags, fused parts or gaps DUP175-175 limits assumed)
Protocol: as §1, §2, §3

Cn1cnc(S(=O)(=O)n2c(-c3cccs3)c(-c3ccsc3C#N)c3ccccc32)c1 [1/28]
pEC50 [1]: 6.00 to 7.00 | pEC50 [2]: 5.00 to 6.00 | pEC50 [3]: > 7.00

N#Cc1sccc1-c1c(-c2ccccc2)n(S(=O)(=O)c2cccnc2)c2ccccc12 [1/41]
pEC50 [1]: 6.00 to 7.00 | pEC50 [2]: 5.00 to 6.00 | pEC50 [3]: > 7.00

N#Cc1sccc1-c1c(-c2cccs2)n(S(=O)(=O)C2CCCCC2)c2ccccc12 [Example 24, 3-(1-(Cyclohexylsulfonyl)-2-(thiophen-2-yl)-1H-indol-3-yl)thiophene-2-carbonitrile]
pEC50 [1]: 6.00 to 7.00 | pEC50 [2]: 5.00 to 6.00 | pEC50 [3]: > 7.00

N#Cc1ccncc1-c1c(-c2cccs2)n(S(=O)(=O)c2ccc(Cl)cc2)c2ccccc12 [20/2]
pEC50 [1]: 6.00 to 7.00 | pEC50 [2]: 5.00 to 6.00 | pEC50 [3]: > 7.00

Cc1ccc(S(=O)(=O)n2c(-c3cccc(C4CC4C(=O)O)c3)c(-c3ccc(F)cc3C#N)c3ccccc32)cc1 (stereo not drawn) [30/15]
pEC50 [1]: 6.00 to 7.00 | pEC50 [2]: 5.00 to 6.00 | pEC50 [3]: 6.00 to 7.00

N#Cc1sccc1-c1c(-c2ccc(C3CC3C(=O)O)s2)n(S(=O)(=O)c2ccc(Cl)cc2)c2ccccc12 (stereo not drawn) [30/8]
pEC50 [1]: 6.00 to 7.00 | pEC50 [2]: 5.00 to 6.00 | pEC50 [3]: 6.00 to 7.00

COc1ccc2c(-c3ccsc3C#N)c(-c3cccs3)n(S(=O)(=O)c3ccc(Cl)cc3)c2c1 [1/40]
pEC50 [1]: 6.00 to 7.00 | pEC50 [2]: 5.00 to 6.00 | pEC50 [3]: > 7.00

N#Cc1cc(F)ccc1-c1c(-c2cccs2)n(S(=O)(=O)c2ccc(Cl)cc2)c2ccccc12 [20/6]
pEC50 [1]: 6.00 to 7.00 | pEC50 [2]: 6.00 to 7.00 | pEC50 [3]: > 7.00

N#Cc1ccc(OCC(=O)O)cc1-c1c(-c2cccs2)n(S(=O)(=O)c2ccc(Cl)cc2)c2ccccc12 [21/1]
pEC50 [1]: 5.00 to 6.00 | pEC50 [2]: 5.00 to 6.00 | pEC50 [3]: 5.00 to 6.00

Cc1ncc(S(=O)(=O)n2c(-c3ccccc3)c(-c3ccsc3C#N)c3ccccc32)s1 [1/42]
pEC50 [1]: > 7.00 | pEC50 [2]: 5.00 to 6.00 | pEC50 [3]: > 7.00

Cc1ccc(S(=O)(=O)n2c(-c3ccsc3)c(-c3ccsc3C#N)c3ccccc32)cc1 [1/23]
pEC50 [1]: > 7.00 | pEC50 [2]: 6.00 to 7.00 | pEC50 [3]: > 7.00

COc1ccc2c(c1)c(-c1ccsc1C#N)c(-c1cccs1)n2S(=O)(=O)c1ccc(Cl)cc1 [1/39]
pEC50 [1]: 5.00 to 6.00 | pEC50 [2]: < 5.00

Cc1ccc(S(=O)(=O)n2c(-c3ccc(CC(C)(C)C(=O)O)s3)c(-c3ccsc3C#N)c3ccccc32)cc1 [3/16]
pEC50 [1]: 6.00 to 7.00 | pEC50 [2]: 5.00 to 6.00 | pEC50 [3]: 6.00 to 7.00

N#Cc1sccc1-c1c(-c2ccc(F)cc2)n(S(=O)(=O)c2ccc(Cl)cc2)c2ccccc12 [26/1]
pEC50 [1]: 6.00 to 7.00 | pEC50 [2]: 5.00 to 6.00 | pEC50 [3]: > 7.00

COc1ccc(S(=O)(=O)n2c(-c3ccccc3)c(C3=C(C#N)CCCC3)c3ccccc32)cc1 [20/16]
pEC50 [1]: 6.00 to 7.00 | pEC50 [2]: 5.00 to 6.00 | pEC50 [3]: 6.00 to 7.00

N#Cc1cscc1-c1c(-c2cccs2)n(S(=O)(=O)c2ccc(Cl)cc2)c2ccccc12 [20/4]
pEC50 [1]: > 7.00 | pEC50 [2]: 5.00 to 6.00 | pEC50 [3]: > 7.00

Cc1ccc(S(=O)(=O)n2c(-c3cccc(-c4cccc(C(C)(C)C(=O)O)c4)c3)c(-c3ccsc3C#N)c3ccccc32)cc1 [30/2]
pEC50 [1]: 6.00 to 7.00 | pEC50 [2]: 5.00 to 6.00 | pEC50 [3]: 6.00 to 7.00

COc1ccc(S(=O)(=O)n2c(-c3ccccc3)c(-c3ccc4ncccc4c3C#N)c3ccccc32)cc1 [20/20]
pEC50 [1]: 5.00 to 6.00 | pEC50 [2]: 5.00 to 6.00 | pEC50 [3]: 6.00 to 7.00

O=S(=O)(c1ccc(Cl)cc1)n1c(-c2cccs2)c(-c2ccsc2C(F)F)c2ccccc21 [20/3]
pEC50 [1]: > 7.00 | pEC50 [2]: 6.00 to 7.00 | pEC50 [3]: > 7.00

NC(=O)c1sccc1-c1c(-c2cccs2)n(S(=O)(=O)c2ccc(Cl)cc2)c2ccccc12 [Example 22]
pEC50 [1]: 6.00 to 7.00 | pEC50 [2]: 5.00 to 6.00 | pEC50 [3]: 6.00 to 7.00

Cc1ccc(S(=O)(=O)n2c(-c3cccc(-c4cncc(C(C)(C)C(=O)O)c4)c3)c(-c3ccsc3C#N)c3ccccc32)cc1 [30/3]
pEC50 [1]: 6.00 to 7.00 | pEC50 [3]: 6.00 to 7.00

COc1ccc(S(=O)(=O)n2c(-c3ccccc3)c(-c3c(C#N)sc4ccccc34)c3ccccc32)cc1 [20/18]
pEC50 [1]: 6.00 to 7.00 | pEC50 [3]: > 7.00
